A word on the mass density: it is mass per unit of volume.

Here are results for two compounds from the NIST ThermoML archive (doi:10.1016/j.jct.2013.03.007).

For the series the following is noted: 101.33 kPa, Liquid, Vibrating tube method.

Numbers after ± are expanded uncertainties.

As for `CCCCn1cc[n+](C)c1.F[P-](F)(F)(F)(F)F` [1-butyl-3-methylimidazolium hexafluorophosphate], the mass density (288.2 K) is 1376.4 ± 0.6 kg/m3; the mass density (293.2 K) amounted to 1372.1 ± 0.6 kg/m3; the mass density (298.2 K) is given as 1367.8 ± 0.6 kg/m3; the mass density (303.2 K) is 1363.6 ± 0.5 kg/m3; the mass density (308.2 K) was 1359.5 ± 0.5 kg/m3; the mass density (313.2 K) is 1355.6 ± 0.5 kg/m3. In addition, the mass density is recorded as 1351.3 ± 0.5 kg/m3 (318.2 K); 1347.2 ± 0.5 kg/m3 (323.2 K); 1343.1 ± 0.5 kg/m3 (328.2 K); 1339 ± 0.5 kg/m3 (333.2 K); 1335 ± 0.5 kg/m3 (338.2 K); 1330.9 ± 0.5 kg/m3 (343.2 K). Moreover, the mass density reads like this: (348.2 K) 1326.8 ± 0.5 kg/m3; (353.2 K) 1322.8 ± 0.5 kg/m3.
Take `CCCCn1cc[n+](C)c1.F[B-](F)(F)F` [1-butyl-3-methylimidazolium tetrafluoroborate]: the mass density came out at 1204.1 ± 1.3 kg/m3 (293.2 K); 1201 ± 1.3 kg/m3 (298.2 K); 1197.5 ± 1.3 kg/m3 (303.2 K); 1194 ± 1.3 kg/m3 (308.2 K); 1190.4 ± 1.3 kg/m3 (313.2 K); 1186.9 ± 1.2 kg/m3 (318.2 K). For the same compound, the mass density is, setting by setting: (323.2 K) 1183.4 ± 1.2 kg/m3; (328.2 K) 1180 ± 1.2 kg/m3; (333.2 K) 1176.5 ± 1.2 kg/m3; (338.2 K) 1173 ± 1.2 kg/m3; (343.2 K) 1169.6 ± 1.2 kg/m3; (348.2 K) 1166.1 ± 1.2 kg/m3. Moreover, the mass density (353.2 K) came to 1162.7 ± 1.2 kg/m3 and the mass density (358.2 K) was determined as 1159.3 ± 1.2 kg/m3.
